From PMC6128854 (Scientific Reports, 2018)
Positions of bridges follow the written chain, without caps; N, C: chain ends. Non-standard residues stand in square brackets, D forms with d. Residues, ends and D or L forms follow the SMILES beside them. Hyp = O=C(O)[C@@H]1C[C@@H](O)CN1

Target: hCav2.2 (Homo sapiens, UniProt Q00975)
Assay: cell-based
Details: SEM

hCav2.2, sequence (Q00975 whole entry, looked up): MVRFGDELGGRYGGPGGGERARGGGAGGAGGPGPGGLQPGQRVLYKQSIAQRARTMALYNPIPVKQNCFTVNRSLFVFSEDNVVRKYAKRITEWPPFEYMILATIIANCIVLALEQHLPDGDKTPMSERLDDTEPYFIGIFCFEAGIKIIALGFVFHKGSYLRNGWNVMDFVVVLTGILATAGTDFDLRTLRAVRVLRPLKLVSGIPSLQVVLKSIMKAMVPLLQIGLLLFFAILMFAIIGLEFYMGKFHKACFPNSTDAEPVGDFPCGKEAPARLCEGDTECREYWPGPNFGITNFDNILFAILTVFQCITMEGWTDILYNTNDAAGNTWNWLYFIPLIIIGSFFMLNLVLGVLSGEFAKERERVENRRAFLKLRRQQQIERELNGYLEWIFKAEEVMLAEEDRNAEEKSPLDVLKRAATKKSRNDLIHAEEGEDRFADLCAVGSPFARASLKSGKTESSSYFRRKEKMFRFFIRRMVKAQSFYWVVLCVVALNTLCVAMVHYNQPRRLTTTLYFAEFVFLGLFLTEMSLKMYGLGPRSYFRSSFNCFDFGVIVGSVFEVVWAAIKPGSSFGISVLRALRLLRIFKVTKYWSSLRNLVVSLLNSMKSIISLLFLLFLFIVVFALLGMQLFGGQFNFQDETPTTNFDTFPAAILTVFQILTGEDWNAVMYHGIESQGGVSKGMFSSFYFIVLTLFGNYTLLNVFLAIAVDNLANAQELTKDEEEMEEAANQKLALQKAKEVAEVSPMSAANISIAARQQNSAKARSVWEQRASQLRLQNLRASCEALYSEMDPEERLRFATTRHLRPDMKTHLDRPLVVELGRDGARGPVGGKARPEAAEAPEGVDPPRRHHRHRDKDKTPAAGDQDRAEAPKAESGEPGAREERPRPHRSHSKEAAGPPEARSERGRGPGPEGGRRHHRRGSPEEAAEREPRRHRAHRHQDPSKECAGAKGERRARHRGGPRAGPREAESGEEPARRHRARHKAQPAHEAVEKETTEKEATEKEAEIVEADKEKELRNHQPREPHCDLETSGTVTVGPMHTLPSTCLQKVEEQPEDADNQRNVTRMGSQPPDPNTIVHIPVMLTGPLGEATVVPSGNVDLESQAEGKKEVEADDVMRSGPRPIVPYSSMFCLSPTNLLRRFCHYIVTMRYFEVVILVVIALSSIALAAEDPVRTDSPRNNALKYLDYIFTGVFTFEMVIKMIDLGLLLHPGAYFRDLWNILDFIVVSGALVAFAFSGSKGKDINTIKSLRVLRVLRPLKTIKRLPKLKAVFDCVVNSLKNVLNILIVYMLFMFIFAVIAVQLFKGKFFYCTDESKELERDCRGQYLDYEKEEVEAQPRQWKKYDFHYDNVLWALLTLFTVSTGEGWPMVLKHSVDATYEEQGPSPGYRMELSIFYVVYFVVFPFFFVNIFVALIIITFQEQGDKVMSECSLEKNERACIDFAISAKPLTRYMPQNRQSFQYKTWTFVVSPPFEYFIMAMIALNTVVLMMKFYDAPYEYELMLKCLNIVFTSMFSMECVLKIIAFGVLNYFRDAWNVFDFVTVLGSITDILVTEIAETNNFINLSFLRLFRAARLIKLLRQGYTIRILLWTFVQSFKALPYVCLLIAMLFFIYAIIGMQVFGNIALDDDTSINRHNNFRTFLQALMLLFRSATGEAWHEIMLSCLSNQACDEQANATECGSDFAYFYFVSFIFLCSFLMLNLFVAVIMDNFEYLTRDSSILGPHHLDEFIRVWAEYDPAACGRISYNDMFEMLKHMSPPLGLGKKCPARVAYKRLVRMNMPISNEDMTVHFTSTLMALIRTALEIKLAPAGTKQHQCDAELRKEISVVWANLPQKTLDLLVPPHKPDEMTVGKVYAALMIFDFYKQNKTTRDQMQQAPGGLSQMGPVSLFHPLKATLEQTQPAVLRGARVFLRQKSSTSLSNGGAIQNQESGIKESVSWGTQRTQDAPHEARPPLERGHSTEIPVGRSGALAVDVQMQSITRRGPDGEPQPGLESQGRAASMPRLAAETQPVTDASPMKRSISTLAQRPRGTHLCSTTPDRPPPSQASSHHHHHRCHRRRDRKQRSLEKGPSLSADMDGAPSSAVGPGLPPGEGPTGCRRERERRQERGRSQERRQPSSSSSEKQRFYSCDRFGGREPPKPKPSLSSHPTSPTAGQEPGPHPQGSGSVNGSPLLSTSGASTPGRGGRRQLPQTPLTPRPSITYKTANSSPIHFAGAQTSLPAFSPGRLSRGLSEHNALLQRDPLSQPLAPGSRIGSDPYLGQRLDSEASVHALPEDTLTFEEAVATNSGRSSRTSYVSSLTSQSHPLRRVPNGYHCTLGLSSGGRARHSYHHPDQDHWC

CC[C@H](C)[C@@H]1NC(=O)[C@@H]2CSSC[C@@H]3NC(=O)[C@H](CCCCN)NC(=O)[C@H](CO)NC(=O)CNC(=O)[C@@H]4C[C@@H](O)CN4C(=O)[C@@H]4CCCN4C(=O)[C@H](CCCCN)NC(=O)[C@@H](N)CSSC[C@H](NC(=O)[C@H](CSSC[C@@H](C(=O)N[C@@H](CCCNC(=N)N)C(=O)N[C@@H](CCCCN)C(=O)N[C@@H](Cc4ccc(O)cc4)C(=O)N[C@@H](Cc4ccc(O)cc4)C(=O)O)NC(=O)[C@H](CCCNC(=N)N)NC(=O)[C@H](CCCCN)NC(=O)[C@H]([C@@H](C)O)NC(=O)[C@H](Cc4ccc(O)cc4)NC(=O)[C@H](CO)NC1=O)NC(=O)[C@H](CC(=O)O)NC(=O)[C@H](Cc1ccc(O)cc1)NC(=O)[C@H](CCSC)NC(=O)[C@H](CO)NC(=O)[C@@H]1C[C@@H](O)CN1C(=O)[C@H](CO)NC3=O)C(=O)N[C@@H]([C@@H](C)O)C(=O)N[C@@H]([C@@H](C)O)C(=O)N2 [MoVIB-[R13Y]] (H-CKP[Hyp]GSKCS[Hyp]SMYDCCTTCISYTKRCRKYY-OH; disulfide 1-16, 8-19, 15-26)
IC50: 3.47 ± 0.55 µM
